Data from patent publication US20060069132A1, “Azolecarboxamide herbicides” (priority 2004, published 2006).

Legend:
barnyardgrass [1] = experiment: Test A pre-/postemergence herbicide test; assay type: in vivo, Echinochloa crus-galli
Procedure, shortened: (§1)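 Both application timings were run together: directed soil spray over freshly planted seeds in sandy loam, and runoff spray onto 2–10 cm seedlings. Evaluation after ~10 days in greenhouse used a 0–100 visual scale versus untreated controls.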

large crabgrass [2] = experiment: Test A pre-/postemergence herbicide test; assay type: in vivo, Digitaria sanguinalis
Procedure, shortened: as §1

giant foxtail [3] = experiment: Test A pre-/postemergence herbicide test; assay type: in vivo, Setaria faberi
Procedure, shortened: as §1

morningglory [4] = experiment: Test A pre-/postemergence herbicide test; assay type: in vivo, Ipomoea spp.
Procedure, shortened: as §1

redroot pigweed = experiment: Test A pre-/postemergence herbicide test; assay type: in vivo, Amaranthus retroflexus
Procedure, shortened: as §1

velvetleaf [5] = experiment: Test A pre-/postemergence herbicide test; assay type: in vivo, Abutilon theophrasti
Procedure, shortened: as §1

barnyardgrass [6] = experiment: Test B pre-/postemergence herbicide test; assay type: in vivo, Echinochloa crus-galli; conditions: for Barnyardgrass plant response rating: postemergence, visual rating, scale 0 (no effect) to 100 (complete control)
Procedure, shortened: (§2)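 Plants compared with untreated controls 13–15 days post-treatment and given a visual 0–100 injury score. Applications: preemergence to seeds; postemergence at 1- to 4-leaf (2–18 cm); paddy species flooded, 2-leaf stage. Vehicle non-phytotoxic, surfactant included.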

Surinam grass = experiment: Test B pre-/postemergence herbicide test; assay type: in vivo, Urochloa decumbens; conditions: for Surinam Grass plant response rating: postemergence, visual rating, scale 0 (no effect) to 100 (complete control)
Procedure, shortened: (§3)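 Seeds were planted and treated preemergence with compounds formulated in a non-phytotoxic solvent mixture containing surfactant, while plants at the 1- to 4-leaf stage (2 to 18 cm) received postemergence sprays. Flooded paddy plants were grown to the 2-leaf stage. After 13 to 15 days in a greenhouse, injury was visually rated 0–100 against untreated controls.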

cocklebur = experiment: Test B pre-/postemergence herbicide test; assay type: in vivo, Xanthium strumarium; conditions: for Cocklebur plant response rating: postemergence, visual rating, scale 0 (no effect) to 100 (complete control)
Procedure, shortened: as §2

corn = experiment: Test B pre-/postemergence herbicide test; assay type: in vivo, Zea mays; conditions: for Corn plant response rating: postemergence, visual rating, scale 0 (no effect) to 100 (complete control)
Procedure, shortened: as §3

large crabgrass [7] = experiment: Test B pre-/postemergence herbicide test; assay type: in vivo, Digitaria sanguinalis; conditions: for Crabgrass, Large plant response rating: postemergence, visual rating, scale 0 (no effect) to 100 (complete control)
Procedure, shortened: as §3

giant foxtail [8] = experiment: Test B pre-/postemergence herbicide test; assay type: in vivo, Setaria faberi; conditions: for Foxtail, Giant plant response rating: postemergence, visual rating, scale 0 (no effect) to 100 (complete control)
Procedure, shortened: as §3

lambsquarters = experiment: Test B pre-/postemergence herbicide test; assay type: in vivo, Chenopodium album; conditions: for Lambsquarters plant response rating: postemergence, visual rating, scale 0 (no effect) to 100 (complete control)
Procedure, shortened: as §3

morningglory [9] = experiment: Test B pre-/postemergence herbicide test; assay type: in vivo, Ipomoea coccinea; conditions: for Morningglory plant response rating: postemergence, visual rating, scale 0 (no effect) to 100 (complete control)
Procedure, shortened: as §2

pigweed = experiment: Test B pre-/postemergence herbicide test; assay type: in vivo, Amaranthus retroflexus; conditions: for Pigweed plant response rating: postemergence, visual rating, scale 0 (no effect) to 100 (complete control)
Procedure, shortened: as §3

rice [10] = experiment: Test B pre-/postemergence herbicide test; assay type: in vivo, Oryza sativa; conditions: preemergence
Procedure, shortened: as §3

velvetleaf [11] = experiment: Test B pre-/postemergence herbicide test; assay type: in vivo, Abutilon theophrasti; conditions: for Velvetleaf plant response rating: postemergence, visual rating, scale 0 (no effect) to 100 (complete control)
Procedure, shortened: as §3

blackgrass = experiment: Test B postemergence herbicide test; assay type: in vivo, Alopecurus myosuroides; conditions: postemergence, visual rating, scale 0 (no effect) to 100 (complete control)
Procedure, shortened: (§4)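 Formulated test chemicals went onto postemergence plants measuring 2 to 18 cm, at one to four leaves. For the paddy assay, species had reached two leaves. Scoring took place 13–15 days later by eye, relative to untreated plants, using 0 for no effect up to 100 for full control.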

wheat = experiment: Test B postemergence herbicide test; assay type: in vivo, Triticum aestivum; parameters: key to Wheat plant response rating: 0 = no effect, 100 = complete control; conditions: postemergence, visual rating, scale 0 (no effect) to 100 (complete control)
Procedure, shortened: (§5)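 Visual ratings, 0 (no effect) to 100 (complete control), made versus controls after 13–15 d greenhouse. Paddy plants treated at 2-leaf stage; postemergence plants at 1- to 4-leaf stage, 2–18 cm tall.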

wild oat = experiment: Test B postemergence herbicide test; assay type: in vivo, Avena fatua; conditions: postemergence, visual rating, scale 0 (no effect) to 100 (complete control)
Procedure, shortened: as §5

rice [12] = experiment: Test B flooded paddy test; assay type: in vivo, Oryza sativa; conditions: 1000 g ai/ha, visual rating, scale 0 to 100 (0 no effect, 100 complete control), 13 to 15 days
Procedure, shortened: as §5

[13] = test system: small flower umbrella sedge; experiment: Test B flooded paddy test; assay type: in vivo, Cyperus difformis; conditions: 1000 g ai/ha, visual rating, scale 0 to 100 (0 no effect, 100 complete control), 13 to 15 days
Procedure, shortened: as §4

ducksalad = experiment: Test B flooded paddy test; assay type: in vivo, Heteranthera limosa; conditions: 1000 g ai/ha, visual rating, scale 0 to 100 (0 no effect, 100 complete control), 13 to 15 days
Procedure, shortened: as §4

barnyardgrass [14] = experiment: Test B flooded paddy test; assay type: in vivo, Echinochloa crus-galli; conditions: 1000 g ai/ha, visual rating, scale 0 to 100 (0 no effect, 100 complete control), 13 to 15 days
Procedure, shortened: as §4

[15] = Postemergence, 500 g ai/ha, 0 to 100 scale, 0 no effect, 100 complete control
[16] = Postemergence, 2000 g ai/ha, 0 to 100 scale, 0 no effect, 100 complete control
[17] = Preemergence, 2000 g ai/ha, visual rating, 0 to 100 scale (0 no effect, 100 complete control)
[18] = preemergence, 500 g ai/ha, visual injury, 0 to 100 scale (0 no effect, 100 complete control)
[19] = 125 g ai/ha, 0 = no effect, 100 = complete control, preemergence
[20] = 500 g ai/ha, visual rating 0-100, 0 no effect, 100 complete control, preemergence

For `CCOC(=O)c1cccc(NC(=O)c2sc(C(C)(C)C)nc2CC)c1` [Compound 204], the “Barnyardgrass plant response rating” value (barnyardgrass [1]; [15]) was 25, the “Plant response rating, Barnyardgrass” value (barnyardgrass [1]; [16]) was 30 and the “Barnyardgrass plant response rating” value (barnyardgrass [1]; [17]) was 5. The “Barnyardgrass plant response rating” value (barnyardgrass [1]; [18]) was 0, the “Crabgrass, Large plant response rating” value (large crabgrass [2]; [15]) was 30 and the “Plant response rating, Crabgrass, Large” value (large crabgrass [2]; [16]) was 30. For the same molecule, the “Crabgrass, Large plant response rating” value (large crabgrass [2]; [17]) was 10, the “Crabgrass, Large plant response rating” value (large crabgrass [2]; [18]) was 0 and the “Foxtail, Giant plant response rating” value (giant foxtail [3]; [15]) was 25. For the same molecule, the “Plant response rating, Foxtail, Giant” value (giant foxtail [3]; [16]) was 25, the “Foxtail, Giant plant response rating” value (giant foxtail [3]; [17]) was 10 and the “Foxtail, Giant plant response rating” value (giant foxtail [3]; [18]) was 0. The “Morningglory plant response rating” value (morningglory [4]; [15]) was 20, the “Plant response rating, Morningglory” value (morningglory [4]; [16]) was 15 and the “Morningglory plant response rating” value (morningglory [4]; [17]) was 25. The “Morningglory plant response rating” value (morningglory [4]; [18]) was 10, the “Pigweed plant response rating” value (redroot pigweed; [15]) was 50 and the “Plant response rating, Pigweed” value (redroot pigweed; [16]) was 60. The “Pigweed plant response rating” value (redroot pigweed; [17]) was 10, the “Pigweed plant response rating” value (redroot pigweed; [18]) was 0 and the “Velvetleaf plant response rating” value (velvetleaf [5]; [15]) was 40. For the same molecule, the “Plant response rating, Velvetleaf” value (velvetleaf [5]; [16]) was 60, the “Velvetleaf plant response rating” value (velvetleaf [5]; [17]) was 25 and the “Velvetleaf plant response rating” value (velvetleaf [5]; [18]) was 5. For the same molecule, the “Barnyardgrass plant response rating (0 to 100 scale)” value (barnyardgrass [6]; [19]) was 0, the “Plant response rating, Barnyardgrass” value (barnyardgrass [6]; [20]) was 0 and the “Barnyardgrass plant response rating” value (barnyardgrass [6]; 125 g ai/ha) was 10. The “Barnyardgrass plant response rating” value (barnyardgrass [6]; 500 g ai/ha) was 10, the “Surinam Grass plant response rating (0 to 100 scale)” value (Surinam grass; [19]) was 0 and the “Plant response rating, Surinam Grass” value (Surinam grass; [20]) was 0. The “Surinam Grass plant response rating” value (Surinam grass; 125 g ai/ha) was 20, the “Surinam Grass plant response rating” value (Surinam grass; 500 g ai/ha) was 50 and the “Cocklebur plant response rating (0 to 100 scale)” value (cocklebur; [19]) was 0. For the same molecule, the “Plant response rating, Cocklebur” value (cocklebur; [20]) was 0, the “Cocklebur plant response rating” value (cocklebur; 125 g ai/ha) was 90 and the “Cocklebur plant response rating” value (cocklebur; 500 g ai/ha) was 90. For the same molecule, the “Corn plant response rating (0 to 100 scale)” value (corn; [19]) was 0, the “Plant response rating, Corn” value (corn; [20]) was 0 and the “Corn plant response rating” value (corn; 125 g ai/ha) was 20. The “Corn plant response rating” value (corn; 500 g ai/ha) was 20, the “Crabgrass, Large plant response rating (0 to 100 scale)” value (large crabgrass [7]; [19]) was 0 and the “Plant response rating, Crabgrass, Large” value (large crabgrass [7]; [20]) was 0. For the same molecule, the “Crabgrass, Large plant response rating” value (large crabgrass [7]; 125 g ai/ha) was 10, the “Crabgrass, Large plant response rating” value (large crabgrass [7]; 500 g ai/ha) was 10 and the “Foxtail, Giant plant response rating (0 to 100 scale)” value (giant foxtail [8]; [19]) was 0. The “Plant response rating, Foxtail, Giant” value (giant foxtail [8]; [20]) was 0, the “Foxtail, Giant plant response rating” value (giant foxtail [8]; 125 g ai/ha) was 10 and the “Foxtail, Giant plant response rating” value (giant foxtail [8]; 500 g ai/ha) was 20. The “Lambsquarters plant response rating (0 to 100 scale)” value (lambsquarters; [19]) was 0, the “Plant response rating, Lambsquarters” value (lambsquarters; [20]) was 0 and the “Lambsquarters plant response rating” value (lambsquarters; 125 g ai/ha) was 30. The “Lambsquarters plant response rating” value (lambsquarters; 500 g ai/ha) was 50, the “Plant response rating, Morningglory” value (morningglory [9]; [20]) was 10 and the “Morningglory plant response rating” value (morningglory [9]; 125 g ai/ha) was 20. For the same molecule, the “Morningglory plant response rating” value (morningglory [9]; 500 g ai/ha) was 40, the “Pigweed plant response rating (0 to 100 scale)” value (pigweed; [19]) was 0 and the “Plant response rating, Pigweed” value (pigweed; [20]) was 10. The “Pigweed plant response rating” value (pigweed; 125 g ai/ha) was 50, the “Pigweed plant response rating” value (pigweed; 500 g ai/ha) was 70 and the “Rice plant response rating (0 to 100 scale)” value (rice [10]; 125 g ai/ha, 0 = no effect, 100 = complete control) was 0. The “Plant response rating, Rice” value (rice [10]; 500 g ai/ha, visual rating 0-100, 0 no effect, 100 complete control) was 0, the “Velvetleaf plant response rating (0 to 100 scale)” value (velvetleaf [11]; [19]) was 0 and the “Plant response rating, Velvetleaf” value (velvetleaf [11]; [20]) was 0. For the same molecule, the “Velvetleaf plant response rating” value (velvetleaf [11]; 125 g ai/ha) was 60, the “Velvetleaf plant response rating” value (velvetleaf [11]; 500 g ai/ha) was 70 and the “Blackgrass plant response rating” value (blackgrass; 125 g ai/ha) was 20. The “Blackgrass plant response rating” value (blackgrass; 500 g ai/ha) was 20, the “Wheat plant response rating” value (wheat; 125 g ai/ha) was 10 and the “Wheat plant response rating” value (wheat; 500 g ai/ha) was 30. For the same molecule, the “Oat, Wild plant response rating” value (wild oat; 125 g ai/ha) was 10, the “Oat, Wild plant response rating” value (wild oat; 500 g ai/ha) was 20 and the “Rice plant response rating” value (rice [12]) was 30. The “Sedge, Umbrella plant response rating” value [13] was 80, the “Ducksalad plant response rating” value (ducksalad) was 40 and the “Barnyardgrass plant response rating” value (barnyardgrass [14]) was 20.
